The results in this text go back to PubChem BioAssay AID256 (DTP/NCI, 2004).

For the experiment, the system named is CD2F1 mice, L1210 leukemia ip, survival T/C. As to the kind of experiment: NCI In Vivo Anticancer Drug Screen. Data for tumor model L1210 Leukemia (intraperitoneal) in CD2F1 (CDF1) mice. To be noted: higher = longer survival. Put shortly: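 Ratio T/C, where T is the treated-group value and C the vehicle-dosed control value, from mice implanted with a transplantable tumor.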

[1] abbreviates: endpoint: mean survival time, dose: 100.0 mg/kg/injection, schedule: Q04DX003 (ip), vehicle: saline with Tween-80.
[2] abbreviates: endpoint: mean survival time, dose: 200.0 mg/kg/injection, schedule: Q04DX003 (ip), vehicle: saline with Tween-80.
The mark [3] stands for this setting: endpoint: mean survival time, dose: 100.0 mg/kg/injection, schedule: Q01DX009 (ip), vehicle: saline with Tween-80.
[4] abbreviates: endpoint: mean survival time, dose: 200.0 mg/kg/injection, schedule: Q01DX009 (ip), vehicle: saline with Tween-80.
[5] abbreviates: endpoint: mean survival time, dose: 400.0 mg/kg/injection, schedule: Q01DX009 (ip), vehicle: saline with Tween-80.
The mark [6] stands for this setting: endpoint: mean survival time, dose: 50.0 mg/kg/injection, schedule: Q01DX009 (ip), vehicle: saline with Tween-80.
Where [7] appears, read: endpoint: mean survival time, dose: 25.0 mg/kg/injection, schedule: Q01DX009 (ip), vehicle: Klucel (hydroxypropylcellulose) (HPC).
Where [8] appears, read: endpoint: mean survival time, dose: 50.0 mg/kg/injection, schedule: Q01DX009 (ip), vehicle: Klucel (hydroxypropylcellulose) (HPC).
Setting [9] is: endpoint: mean survival time, dose: 100.0 mg/kg/injection, schedule: Q01DX009 (ip), vehicle: Klucel (hydroxypropylcellulose) (HPC).
Where [10] appears, read: endpoint: mean survival time, dose: 200.0 mg/kg/injection, schedule: Q01DX009 (ip), vehicle: Klucel (hydroxypropylcellulose) (HPC).

“And” between values parts separate entries of the source, which are not always exact repeats. Equal values may be shown once. Inconclusive results and toxic doses are left out.

As to `CCCCNc1ncnc2c1cnn2C`, the T/C reads like this: (endpoint: mean survival time, dose: 4.0 mg/kg/injection, schedule: Q01DX Z (ip), vehicle: saline) 97 % of control; (endpoint: mean survival time, dose: 8.0 mg/kg/injection, schedule: Q01DX Z (ip), vehicle: saline) 96 % of control; (endpoint: mean survival time, dose: 12.5 mg/kg/injection, schedule: Q01DX005 (ip), vehicle: saline with Tween-80) 94 % of control; (endpoint: mean survival time, dose: 16.0 mg/kg/injection, schedule: Q01DX Z (ip), vehicle: saline) 100 % of control; (endpoint: mean survival time, dose: 25.0 mg/kg/injection, schedule: Q01DX005 (ip), vehicle: saline with Tween-80) 100 % of control; (endpoint: mean survival time, dose: 31.0 mg/kg/injection, schedule: Q01DX Z (ip), vehicle: saline) 103 % of control. The T/C was 104 % of control (endpoint: mean survival time, dose: 50.0 mg/kg/injection, schedule: Q01DX005 (ip), vehicle: saline with Tween-80); 98 % of control (endpoint: mean survival time, dose: 100.0 mg/kg/injection, schedule: Q01DX005 (ip), vehicle: saline with Tween-80); 100 % of control (endpoint: mean survival time, dose: 200.0 mg/kg/injection, schedule: Q01DX005 (ip), vehicle: saline with Tween-80); 100 % of control (endpoint: median survival time, dose: 31.3 mg/kg/injection, schedule: Q01DX009 (ip), vehicle: saline); 100 % of control (endpoint: median survival time, dose: 62.5 mg/kg/injection, schedule: Q01DX009 (ip), vehicle: saline); 105 % of control (endpoint: median survival time, dose: 125.0 mg/kg/injection, schedule: Q01DX009 (ip), vehicle: saline).
Take `CCOC(=O)CN(C=O)C(C)c1ccccc1` (stereo not drawn): the T/C under setting [1] is 98 % of control; the T/C under setting [2] is 93 % of control; the T/C (endpoint: mean survival time, dose: 400.0 mg/kg/injection, schedule: Q04DX003 (ip), vehicle: saline with Tween-80) is 92 % of control.
For the compound `O=[N+]([O-])c1cc(Cl)ccc1NC(Nc1ccc(Cl)cc1[N+](=O)[O-])C(Cl)(Cl)Cl`, the T/C under setting [3] was 101 % of control, the T/C under setting [4] was 106 % of control and the T/C under setting [5] was 101 % of control.
Regarding `[N-]=[N+]=NC(=O)c1cnc(OCc2ccccc2)nc1N`, the T/C by setting is: (endpoint: mean survival time, dose: 100.0 mg/kg/injection, schedule: Q01DX001 (ip), vehicle: saline with Tween-80) 91 % of control; under setting [3], 93 % of control; (endpoint: mean survival time, dose: 200.0 mg/kg/injection, schedule: Q01DX001 (ip), vehicle: saline with Tween-80) 96 % of control; under setting [4], 96 % of control; (endpoint: mean survival time, dose: 400.0 mg/kg/injection, schedule: Q01DX001 (ip), vehicle: saline with Tween-80) 94 % of control; under setting [5], 93 % of control.
Take `NC(Cc1cc(I)c(Oc2cc(I)c(O)c(I)c2)c(I)c1)C(=O)O` (stereo not drawn): the T/C is 96 % of control (endpoint: mean survival time, dose: 0.04 mg/kg/injection, schedule: Q01DX009 (ip), vehicle: saline + alcohol); 88 % of control and 96 % of control (endpoint: mean survival time, dose: 0.04 mg/kg/injection, schedule: Q01DX009 (ip), vehicle: saline); 102 % of control (endpoint: mean survival time, dose: 0.16 mg/kg/injection, schedule: Q01DX009 (ip), vehicle: saline + alcohol); 91 % of control and 98 % of control (endpoint: mean survival time, dose: 0.16 mg/kg/injection, schedule: Q01DX009 (ip), vehicle: saline); 93 % of control (endpoint: mean survival time, dose: 0.25 mg/kg/injection, schedule: Q01DX009 (ip), vehicle: saline); 94 % of control (endpoint: mean survival time, dose: 0.63 mg/kg/injection, schedule: Q01DX009 (ip), vehicle: saline). The T/C (endpoint: mean survival time, dose: 0.64 mg/kg/injection, schedule: Q01DX009 (ip), vehicle: saline + alcohol) is 94 % of control; the T/C (endpoint: mean survival time, dose: 0.64 mg/kg/injection, schedule: Q01DX009 (ip), vehicle: saline) is 87 % of control and 94 % of control; the T/C (endpoint: mean survival time, dose: 1.0 mg/kg/injection, schedule: Q01DX009 (ip), vehicle: saline) was 96 % of control; the T/C (endpoint: mean survival time, dose: 2.0 mg/kg/injection, schedule: Q01DX009 (ip), vehicle: saline) was 88 % of control; the T/C (endpoint: mean survival time, dose: 2.5 mg/kg/injection, schedule: Q01DX009 (ip), vehicle: saline + alcohol) was 93 % of control; the T/C (endpoint: mean survival time, dose: 2.5 mg/kg/injection, schedule: Q01DX009 (ip), vehicle: saline) was 91 % of control and 92 % of control and 94 % of control. The T/C was 86 % of control and 88 % of control and 90 % of control (endpoint: mean survival time, dose: 8.0 mg/kg/injection, schedule: Q01DX009 (ip), vehicle: saline); 94 % of control (endpoint: mean survival time, dose: 10.0 mg/kg/injection, schedule: Q01DX009 (ip), vehicle: saline + alcohol); 89 % of control and 90 % of control and 92 % of control (endpoint: mean survival time, dose: 10.0 mg/kg/injection, schedule: Q01DX009 (ip), vehicle: saline); 86 % of control and 89 % of control (endpoint: mean survival time, dose: 16.0 mg/kg/injection, schedule: Q01DX009 (ip), vehicle: saline); 83 % of control and 89 % of control (endpoint: mean survival time, dose: 32.0 mg/kg/injection, schedule: Q01DX009 (ip), vehicle: saline); 88 % of control (endpoint: mean survival time, dose: 40.0 mg/kg/injection, schedule: Q01DX009 (ip), vehicle: saline). Further, the T/C by setting is: (endpoint: mean survival time, dose: 64.0 mg/kg/injection, schedule: Q01DX009 (ip), vehicle: saline) 87 % of control and 89 % of control; (endpoint: mean survival time, dose: 128.0 mg/kg/injection, schedule: Q01DX009 (ip), vehicle: saline) 87 % of control and 90 % of control.
Turning to `COCc1c(C)c(C)c(COC)c(C)c1C`, the T/C by setting is: (endpoint: mean survival time, dose: 50.0 mg/kg/injection, schedule: Q01DX009 (ip), vehicle: saline) 95 % of control; (endpoint: mean survival time, dose: 100.0 mg/kg/injection, schedule: Q01DX009 (ip), vehicle: saline) 97 % of control; (endpoint: mean survival time, dose: 200.0 mg/kg/injection, schedule: Q01DX009 (ip), vehicle: saline) 88 % of control.
Consider `NC(=O)c1ncc[nH]c1=O`, for which the T/C runs as follows: under setting [1], 103 % of control; under setting [2], 91 % of control.
Regarding `Cc1ccccc1NC(=O)CC#N`, the T/C reads like this: (endpoint: mean survival time, dose: 25.0 mg/kg/injection, schedule: Q01DX009 (ip), vehicle: saline with Tween-80) 96 % of control; under setting [6], 96 % of control; under setting [3], 94 % of control.
Turning to `COc1cc([C@@H]2c3cc4c(cc3[C@H](O)[C@H]3COC(=O)[C@H]23)OCO4)cc(OC)c1OC`, the T/C reads like this: (endpoint: median survival time, dose: 0.62 mg/kg/injection, schedule: Q01DX009 (ip), vehicle: saline with Tween-80) 122 % of control; (endpoint: median survival time, dose: 0.63 mg/kg/injection, schedule: Q01DX009 (ip), vehicle: saline with Tween-80) 112 % of control; (endpoint: median survival time, dose: 1.0 mg/kg/injection, schedule: Q01DX005 (ip), vehicle: Klucel (hydroxypropylcellulose) (HPC)) 124 % of control; (endpoint: median survival time, dose: 1.25 mg/kg/injection, schedule: Q01DX009 (ip), vehicle: saline with Tween-80) 116 % of control and 120 % of control; (endpoint: median survival time, dose: 1.8 mg/kg/injection, schedule: Q01DX009 (ip), vehicle: saline with Tween-80) 122 % of control; (endpoint: median survival time, dose: 2.0 mg/kg/injection, schedule: Q01DX005 (ip), vehicle: Klucel (hydroxypropylcellulose) (HPC)) 118 % of control. The T/C runs as follows: (endpoint: median survival time, dose: 2.5 mg/kg/injection, schedule: Q01DX009 (ip), vehicle: saline with Tween-80) 122 % of control; (endpoint: median survival time, dose: 10.0 mg/kg/injection, schedule: Q01DX009 (ip), vehicle: saline with Tween-80) 115 % of control and 111 % of control; (endpoint: median survival time, dose: 13.89 mg/kg/injection, schedule: Q01DX009 (ip), vehicle: saline with Tween-80) 155 % of control.
Regarding `COCC1OC2OC3C(COC)OC(OC4C(COC)OC(OC5C(COC)OC(OC6C(COC)OC(OC7C(COC)OC(OC8C(COC)OC(OC1C(O)C2O)C(O)C8O)C(O)C7O)C(O)C6O)C(O)C5O)C(O)C4O)C(O)C3O` (stereo not drawn) (tested in a mixture with another compound), the T/C is 98 % of control under setting [7]; 98 % of control under setting [8]; 94 % of control under setting [9]; 96 % of control under setting [10]; 93 % of control (endpoint: mean survival time, dose: 400.0 mg/kg/injection, schedule: Q01DX009 (ip), vehicle: Klucel (hydroxypropylcellulose) (HPC)).
Take `CCCCCC(=O)C(C)C(C)C` (stereo not drawn): the T/C is, setting by setting: under setting [6], 97 % of control; under setting [3], 97 % of control; under setting [4], 97 % of control.
Consider `CC(=O)OCC(=O)C1(O)CCC2C3CCC4=CC(=O)CCC4(C)C34OC4CC21C` (stereo not drawn), for which the T/C is, setting by setting: under setting [3], 98 % of control; under setting [4], 94 % of control; under setting [5], 91 % of control.
Turning to `COc1cc(C(=O)c2cc3c(cc2C)OCO3)cc(OC)c1OC`, the T/C is 102 % of control and 105 % of control (endpoint: mean survival time, dose: 6.25 mg/kg/injection, schedule: Q01DX009 (ip), vehicle: Klucel (hydroxypropylcellulose) (HPC)); 100 % of control and 102 % of control (endpoint: mean survival time, dose: 12.5 mg/kg/injection, schedule: Q01DX009 (ip), vehicle: Klucel (hydroxypropylcellulose) (HPC)); 105 % of control and 107 % of control under setting [7]; 113 % of control and 98 % of control under setting [8]; 105 % of control under setting [9]; 114 % of control under setting [10].
